Test results as given in patent US20240245673A1, “Papain-like protease (PLpro) inhibitors” (Pfizer Inc., priority 2022, published 2024).

What follows are compounds tested against SARS-CoV-2 Papain like protease (PLpro) (Severe acute respiratory syndrome coronavirus 2 (2019-nCoV) (SARS-CoV-2), UniProt P0DTD1) (assay: Papain Like Protease (PLpro) biochemical assay with profluorogenic substrate Z-RLRGG-AMC). Conditions: SARS-CoV-2 PLpro 6.25 nM, 25 μM Z-RLRGG-AMC substrate, 60 minute reaction; read-out: IC50.

| Structure (SMILES) | IC50 [nM] |
| --- | --- |
| CNc1cc([C@@H](C)NC(=O)c2ccccc2C)c2ccccc2n1 [Example 41, (R)-2-methyl-N-(1-(2-(methylamino)quinolin-4-yl)ethyl)benzamide] | 1010 |
| Cc1ccc(NC(=O)[C@H]2CCCCN2)cc1C(=O)NC(C)c1cc(-c2cn[nH]c2)cc2ccccc12 (single isomer, unassigned) [Example 53, (R)—N-(3-(((R*)-1-(3-(1H-pyrazol-4-yl)naphthalen-1-yl)ethyl)carbamoyl)-4-methylphenyl)piperidine-2-carboxamide] | 478 |
| Cc1cc(CN(C)C(=O)c2ncc[nH]2)ccc1C(=O)N[C@H](C)c1cc(-c2cnn(C)c2)nc2ccccc12 [Example 265, (R)-N-methyl-N-(3-methyl-4-((1-(2-(1-methyl-1H-pyrazol-4-yl)quinolin-4-yl)ethyl)carbamoyl)benzyl)-1H-imidazole-2-carboxamide] | 140 |
| Cc1cc(COCc2cscn2)ccc1C(=O)NC1(c2cc(-c3cnn(CCS(C)(=O)=O)c3)nc3ccccc23)CC1 [Example 328, 2-methyl-N-(1-(2-(1-(2-(methylsulfonyl)ethyl)-1H-pyrazol-4-yl)quinolin-4-yl)cyclopropyl)-4-((thiazol-4-ylmethoxy)methyl)benzamide] | < 1 |
| Cc1ccccc1C(=O)NC(C)c1cc(-c2cccnc2)nc2ccccc12 (stereo not drawn) [Example 114, 2-methyl-N-{1-[2-(pyridin-3-yl)quinolin-4-yl]ethyl}benzamide] | 877 |
| Cc1cc(C(O)C(=O)Nc2cscn2)ccc1C(=O)N[C@H](C)c1cc(-c2cnn(C)c2)nc2ccccc12 (stereo partly drawn) [Example 301, 4-(1-hydroxy-2-oxo-2-(thiazol-4-ylamino)ethyl)-2-methyl-N-((R)-1-(2-(1-methyl-1H-pyrazol-4-yl)quinolin-4-yl)ethyl)benzamide] | 1 |
| Cc1ccc(CN)cc1C(=O)N[C@H](C)c1cc(-c2cnn(C)c2)cc2ccccc12 (single isomer, unassigned) [Example 9] | 3920 |
| Cc1ccccc1C(=O)NC(C)c1cc(CC#N)nc2ccccc12 (stereo in doubt) [Example 159, N-{(1R)-1-[2-(cyanomethyl)quinolin-4-yl]-ethyl}-2-methylbenzamide] | 1970 |
| COC[C@H](OCc1cocn1)c1ccc(C(=O)NC2(c3cc(-c4cnn(C)c4)cc4ncccc34)CC2)c(C)c1 (single isomer, unassigned) [Example 356] | 2 |
| Cc1cc(COCc2nccn2C)ccc1C(=O)N[C@H](C)c1cc(-c2cnn(C)c2)nc2ccccc12 [Example 291, (R)-2-methyl-4-(((1-methyl-1H-imidazol-2-yl)methoxy)methyl)-N-(1-(2-(1-methyl-1H-pyrazol-4-yl)quinolin-4-yl)ethyl)benzamide] | 1 |
| Cc1cc(CNCc2ncc[nH]2)ccc1C(=O)NC(C)c1cc(-c2cnn(C)c2)cc2ccccc12 (stereo not drawn) [Example 6, 4-((((1H-imidazol-2-yl)methyl)amino)methyl)-2-methyl-N-(1-(3-(1-methyl-1H-pyrazol-4-yl)naphthalen-1-yl)ethyl)benzamide] | 19 |
| Cc1ccc(N2CCNCC2)cc1C(=O)N[C@H](C)c1cc(-c2cnn(C)c2)nc2ccccc12 [Example 55, (R)-2-methyl-N-(1-(2-(1-methyl-1H-pyrazol-4-yl)quinolin-4-yl)ethyl)-5-(piperazin-1-yl)benzamide] | 18 |
